Each molecule was assayed on ALOMY (blackgrass) (assay: Post-Emergent Test III (Wheat and Barley)). Settings: Alopecurus myosuroides, post-emergence, 504 h; 35 g ai/ha, postemergence; read-out: Visual Growth Reduction (%) 21 Days After Application, ALOMY.
Type: in vivo, Alopecurus myosuroides
Procedure: (§1) Seeds of the desired test plant species were planted in Sun Gro MetroMix® 306 planting mixture, which typically has a pH of 6.0 to 6.8 and an organic matter content of about 30 percent, in plastic pots with a surface area of 103.2 square centimeters (cm^2). When required to ensure good germination and healthy plants, a fungicide treatment and/or other chemical or physical treatment was applied. The plants were grown for 7-36 days in a greenhouse with an approximate 14 h photoperiod which was maintained at about 18° C. during the day and 17° C. during the night. Nutrients and water were added on a regular basis and supplemental lighting was provided with overhead metal halide 1000-Watt lamps as necessary. The plants were employed for testing when they reached the second or third true leaf stage.
(§2) A weighed amount, determined by the highest rate to be tested, of each test compound was placed in a 25 mL glass vial and was dissolved in 4 mL of a 97:3 v/v mixture of acetone and DMSO to obtain concentrated stock solutions. […] The concentrated stock solutions obtained were diluted with 20 mL of an aqueous mixture containing acetone, water, isopropyl alcohol, DMSO, Agri-Dex crop oil concentrate, and X-77 surfactant in a 48:39:10:1.5:1.5:0.02 v/v ratio to obtain spray solutions containing the highest application rates. Additional application rates were obtained by serial dilution of 12 mL of the high rate solution into a solution containing 2 mL of 97:3 v/v mixture of acetone and DMSO and 10 mL of an aqueous mixture containing acetone, water, isopropyl alcohol, DMSO, Agri-Dex crop oil concentrate, and X-77 surfactant in a 48:39:10:1.5:1.5:0.02 v/v ratio to obtain ½×, ¼×, ⅛× and 1/16× rates of the high rate. Compound requirements are based upon a 12 mL application volume at a rate of 187 liters per hectare (L/ha). Formulated compounds were applied to the plant material with an overhead Mandel track sprayer equipped with 8002E nozzles calibrated to deliver 187 L/ha over an application area of 0.503 square meters at a spray height of 18 inches (43 cm) above the average plant canopy height. Control plants were sprayed in the same manner with the solvent blank.
(§3) The treated plants and control plants were placed in a greenhouse as described above and watered by subirrigation to prevent wash-off of the test compounds. After 21 dAYS, the condition of the test plants as compared with that of the untreated plants was determined visually and scored on a scale of 0 to 100 percent where 0 corresponds to no injury and 100 corresponds to complete kill and presented as indicated in Table A.
(§4) By applying the well-accepted probit analysis as described by J. Berkson in Journal of the American Statistical Society, 48, 565 (1953) and by D. Finney in “Probit Analysis” Cambridge University Press (1952), herbicidal injury of a specific compound at various rates can be used to calculate GR10, GR20, GR50, GR80 and GR90 values, which are defined as growth reduction factors that correspond to the effective dose of herbicide required to provide plant growth reduction (GR) of 10 percent, 20 percent, 50 percent, 80 percent and 90 percent, respectively. Probit analysis was applied to data collected from multiple dose rates of individual compounds utilizing the procedures explained in the following examples. The analysis of those dose rates is captured in the following tables.
COC(=O)c1nc(-c2ccc(OC(F)F)nc2)c(F)c(N)c1Cl [Compound 71] showed a pest or weed control at 35 g/ha of 0 to 29%.

Same assay, conditions: Alopecurus myosuroides, post-emergence, 504 h; 70 g ai/ha, postemergence; read-out: Visual Growth Reduction (%) 21 Days After Application, ALOMY
Molecule COC(=O)c1nc(-c2ccc(OC(F)F)nc2)c(F)c(N)c1Cl [Compound 71] has a pest or weed control at 70 g/ha of 0 to 29%.

Same assay, conditions: Alopecurus myosuroides, post-emergence, 504 h; 140 g ai/ha, postemergence; read-out: Visual Growth Reduction (%) 21 Days After Application, ALOMY
Molecule COC(=O)c1nc(-c2ccc(OC(F)F)nc2)c(F)c(N)c1Cl [Compound 71] has a pest or weed control at 140 g/ha of 30 to 44%.

Same assay, conditions: effective dose for growth reduction of 50 percent, probit analysis
With COC(=O)c1nc(-c2ccc(OC(F)F)nc2)c(F)c(N)c1Cl [Compound 71] the “GR50, ALOMY” value was >140 g ai/ha.

Same assay, conditions: effective dose for growth reduction of 80 percent, probit analysis
In the case of COC(=O)c1nc(-c2ccc(OC(F)F)nc2)c(F)c(N)c1Cl [Compound 71], the “GR80, ALOMY” value is reported as >140 g ai/ha.

These molecules were tested on APESV (windgrass) (assay: Post-Emergent Test III (Wheat and Barley)). Settings: Apera spica-venti, post-emergence, 504 h; 35 g ai/ha, postemergence; read-out: Visual Growth Reduction (%) 21 Days After Application, APESV.
Type: in vivo, Apera spica-venti
Procedure: as §1, §2, §3, §4
COC(=O)c1nc(-c2ccc(OC(F)F)nc2)c(F)c(N)c1Cl [Compound 71] gave a pest or weed control at 35 g/ha of 0 to 29%.

Same assay, conditions: Apera spica-venti, post-emergence, 504 h; 70 g ai/ha, postemergence; read-out: Visual Growth Reduction (%) 21 Days After Application, APESV
COC(=O)c1nc(-c2ccc(OC(F)F)nc2)c(F)c(N)c1Cl [Compound 71] gave a pest or weed control at 70 g/ha of 0 to 29%.

Same assay, conditions: Apera spica-venti, post-emergence, 504 h; 140 g ai/ha, postemergence; read-out: Visual Growth Reduction (%) 21 Days After Application, APESV
COC(=O)c1nc(-c2ccc(OC(F)F)nc2)c(F)c(N)c1Cl [Compound 71] was tested, and the pest or weed control at 140 g/ha was 30 to 44%.

Same assay, conditions: effective dose for growth reduction of 50 percent, probit analysis
With COC(=O)c1nc(-c2ccc(OC(F)F)nc2)c(F)c(N)c1Cl [Compound 71] the “GR50, APESV” value was >140 g ai/ha.

Same assay, conditions: effective dose for growth reduction of 80 percent, probit analysis
For COC(=O)c1nc(-c2ccc(OC(F)F)nc2)c(F)c(N)c1Cl [Compound 71], the “GR80, APESV” value was >140 g ai/ha.

What follows are molecules tested on TRZSS (assay: Post-Emergent Test III (Wheat and Barley)). Settings: Triticum aestivum, post-emergence, 504 h; 35 g ai/ha, postemergence; read-out: Visual Growth Reduction (%) 21 Days After Application, TRZSS.
Type: in vivo
Procedure: as §1, §2, §3, §4
COC(=O)c1nc(-c2ccc(OC(F)F)nc2)c(F)c(N)c1Cl [Compound 71] showed a pest or weed control at 35 g/ha of 60 to 74%.

Same assay, conditions: Triticum aestivum, post-emergence, 504 h; 70 g ai/ha, postemergence; read-out: Visual Growth Reduction (%) 21 Days After Application, TRZSS
In the case of COC(=O)c1nc(-c2ccc(OC(F)F)nc2)c(F)c(N)c1Cl [Compound 71], the pest or weed control at 70 g/ha is reported as 75 to 84%.

Same assay, conditions: Triticum aestivum, post-emergence, 504 h; 140 g ai/ha, postemergence; read-out: Visual Growth Reduction (%) 21 Days After Application, TRZSS
COC(=O)c1nc(-c2ccc(OC(F)F)nc2)c(F)c(N)c1Cl [Compound 71] gave a pest or weed control at 140 g/ha of 85 to 94%.

Same assay, conditions: effective dose for growth reduction of 20 percent, probit analysis
With COC(=O)c1nc(-c2ccc(OC(F)F)nc2)c(F)c(N)c1Cl [Compound 71] the “GR20, TRZSS” value was 16 g ai/ha.

These molecules were tested on LOLSS (assay: Post-Emergent Test III (Wheat and Barley)). Settings: effective dose for growth reduction of 50 percent, probit analysis.
Type: in vivo
Procedure: as §1, §2, §3, §4
With COC(=O)c1nc(-c2ccc(OC(F)F)nc2)c(F)c(N)c1Cl [Compound 71] the “GR50, LOLSS” value was >140 g ai/ha.

Same assay, conditions: effective dose for growth reduction of 80 percent, probit analysis
COC(=O)c1nc(-c2ccc(OC(F)F)nc2)c(F)c(N)c1Cl [Compound 71] was tested, and the “GR80, LOLSS” value was >140 g ai/ha.

Same assay, conditions: post-emergence, 504 h; 35 g ai/ha, postemergence; read-out: Visual Growth Reduction (%) 21 Days After Application, LOLSS
With COC(=O)c1nc(-c2ccc(OC(F)F)nc2)c(F)c(N)c1Cl [Compound 71] the pest or weed control at 35 g/ha was 0 to 29%.

Same assay, conditions: post-emergence, 504 h; 70 g ai/ha, postemergence; read-out: Visual Growth Reduction (%) 21 Days After Application, LOLSS
For COC(=O)c1nc(-c2ccc(OC(F)F)nc2)c(F)c(N)c1Cl [Compound 71], the pest or weed control at 70 g/ha was 0 to 29%.

Same assay, conditions: post-emergence, 504 h; 140 g ai/ha, postemergence; read-out: Visual Growth Reduction (%) 21 Days After Application, LOLSS
Work on COC(=O)c1nc(-c2ccc(OC(F)F)nc2)c(F)c(N)c1Cl [Compound 71] yielded a pest or weed control at 140 g/ha of 30 to 44%.

Each molecule was assayed on HORSS (assay: Post-Emergent Test III (Wheat and Barley)). Settings: Hordeum vulgare, post-emergence, 504 h; 35 g ai/ha, postemergence; read-out: Visual Growth Reduction (%) 21 Days After Application, HORSS.
Type: in vivo
Procedure: as §1, §2, §3, §4
In the case of COC(=O)c1nc(-c2ccc(OC(F)F)nc2)c(F)c(N)c1Cl [Compound 71], the pest or weed control at 35 g/ha is reported as 30 to 44%.

Same assay, conditions: Hordeum vulgare, post-emergence, 504 h; 70 g ai/ha, postemergence; read-out: Visual Growth Reduction (%) 21 Days After Application, HORSS
COC(=O)c1nc(-c2ccc(OC(F)F)nc2)c(F)c(N)c1Cl [Compound 71] gave a pest or weed control at 70 g/ha of 60 to 74%.

Same assay, conditions: Hordeum vulgare, post-emergence, 504 h; 140 g ai/ha, postemergence; read-out: Visual Growth Reduction (%) 21 Days After Application, HORSS
COC(=O)c1nc(-c2ccc(OC(F)F)nc2)c(F)c(N)c1Cl [Compound 71] gave a pest or weed control at 140 g/ha of 75 to 84%.

Same assay, conditions: effective dose for growth reduction of 20 percent, probit analysis
In the case of COC(=O)c1nc(-c2ccc(OC(F)F)nc2)c(F)c(N)c1Cl [Compound 71], the “GR20, HORSS” value is reported as 26 g ai/ha.

These molecules were tested on KCHSC (kochia) (assay: Post-Emergent Test III (Wheat and Barley)). Settings: Bassia scoparia, post-emergence, 504 h; 35 g ai/ha, postemergence; read-out: Visual Growth Reduction (%) 21 Days After Application, KCHSC.
Type: in vivo, Kochia scoparia
Procedure: as §1, §2, §3, §4
In the case of COC(=O)c1nc(-c2ccc(OC(F)F)nc2)c(F)c(N)c1Cl [Compound 71], the pest or weed control at 35 g/ha is reported as 0 to 29%.

Same assay, conditions: Bassia scoparia, post-emergence, 504 h; 70 g ai/ha, postemergence; read-out: Visual Growth Reduction (%) 21 Days After Application, KCHSC
For COC(=O)c1nc(-c2ccc(OC(F)F)nc2)c(F)c(N)c1Cl [Compound 71], the pest or weed control at 70 g/ha was 60 to 74%.

Same assay, conditions: Bassia scoparia, post-emergence, 504 h; 140 g ai/ha, postemergence; read-out: Visual Growth Reduction (%) 21 Days After Application, KCHSC
COC(=O)c1nc(-c2ccc(OC(F)F)nc2)c(F)c(N)c1Cl [Compound 71] was tested, and the pest or weed control at 140 g/ha was 60 to 74%.

Same assay, conditions: effective dose for growth reduction of 50 percent, probit analysis
COC(=O)c1nc(-c2ccc(OC(F)F)nc2)c(F)c(N)c1Cl [Compound 71] was tested, and the “GR50, KCHSC” value was 80 g ai/ha.

Same assay, conditions: effective dose for growth reduction of 80 percent, probit analysis
For COC(=O)c1nc(-c2ccc(OC(F)F)nc2)c(F)c(N)c1Cl [Compound 71], the “GR80, KCHSC” value was >140 g ai/ha.

— US10765114B2, “4-amino-6-(pyridyl and 2-substitutedphenyl)-picolinates and 6-amino-2-(pyridyl and 2-substitutedphenyl)-pyrimidine-4-carboxylates and their use as herbicides” (Dow AgroSciences LLC, priority 2013, dated 2020)
